Assay [1] relates to anti-drug mouse monoclonal antibodies. In words: Biochip competitive immunoassay for prohibited substances in urine. In kind it is binding. Particulars: competitive immunoassay on chip.
For assay [2], the system named is anti-morphine antibodies. Put plainly: Qualitative screening of athlete urines on chip (morphine). It counts as binding, mouse. Particulars: athlete urine samples containing the substance.

On to `CC(N)Cc1ccccc1` (stereo not shown) [Amphetamine, amphetamine], for which, in assay [1], the “Cutoff value (the 50% inhibitory concentration)” value was 5.2 µg/L.

For the compound `C[C@H]1O[C@@H](O[C@H]2[C@@H](O)C[C@H](O[C@H]3[C@@H](O)C[C@H](O[C@H]4CC[C@@]5(C)[C@H](CC[C@@H]6[C@@H]5C[C@@H](O)[C@]5(C)[C@@H](C7=CC(=O)OC7)CC[C@]65O)C4)O[C@@H]3C)O[C@@H]2C)C[C@H](O)[C@@H]1O` [Digoxin, digoxin], the “Cutoff value (the 50% inhibitory concentration)” value in assay [1] stood at 2.8 µg/L.

For `CN[C@@H](C)Cc1ccccc1` [Methamphetamine], the “Cutoff value (the 50% inhibitory concentration)” value in assay [1] was 4.0 µg/L.

Turning to `C[C@]12CC[C@H]3[C@@H](CCC4=CC(=O)CC[C@@]43C)[C@@H]1CC[C@@H]2O` [Testosterone], the “Cutoff value (the 50% inhibitory concentration)” value in assay [1] is 0.6 µg/L.

In the case of `COc1ccc2c3c1O[C@H]1[C@@H](O)CC[C@H]4[C@@H](C2)N(C)CC[C@@]341` [dihydrocodeine], the “Cross-reactivity with the anti-morphine antibodies” value in assay [2] was “Cross-reactivity with the anti-morphine antibodies”.

As to `CCOC(=O)C1(c2ccccc2)CCN(C)CC1` [pethidine], in assay [2], the “Cross-reactivity with the anti-morphine antibodies” value is given as “Cross-reactivity with the anti-morphine antibodies”.

As to gentamicin, in assay [1], the “Cutoff value (the 50% inhibitory concentration)” value was found to be 2.5 µg/L.
